Source: patent US20040106626A1, “6-Membered unsaturated heterocyclic compounds useful for selective inhibition of the coagulation cascade” (Pharmacia Corporation, priority 2001, published 2004)
pIC50: −log10 of the molar value.

Key:
Format in all cases: biochemical
[1] = target: T1, recombinant soluble tissue factor and recombinant human factor VIIa (TF-VIIa) (Homo sapiens, UniProt P08709); assay: TF-VIIa assay (chromogenic substrate hydrolysis); settings: reported only as less than or greater than 0.1 uM
T1 construct: conversion of coagulation factor VII to VIIa by factor Xa; purchased American Diagnostica, Greenwich CT; host or cells: soluble TF made in house in E. coli
T1 sequence (P08709 213-466 limits assumed): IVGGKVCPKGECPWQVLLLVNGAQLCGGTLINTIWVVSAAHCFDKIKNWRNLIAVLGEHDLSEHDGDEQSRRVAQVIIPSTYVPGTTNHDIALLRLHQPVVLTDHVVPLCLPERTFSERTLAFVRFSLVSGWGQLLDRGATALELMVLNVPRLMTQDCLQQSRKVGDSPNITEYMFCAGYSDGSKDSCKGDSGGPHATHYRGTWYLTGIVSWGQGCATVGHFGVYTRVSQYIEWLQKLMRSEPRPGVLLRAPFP
T1 sequence (P08709 61-212 limits assumed): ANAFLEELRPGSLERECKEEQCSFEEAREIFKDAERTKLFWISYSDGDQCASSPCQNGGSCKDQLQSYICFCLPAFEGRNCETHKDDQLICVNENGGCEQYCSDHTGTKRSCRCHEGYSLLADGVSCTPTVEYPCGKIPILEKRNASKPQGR
T1 sequence (P13726 33-251 partner limits assumed): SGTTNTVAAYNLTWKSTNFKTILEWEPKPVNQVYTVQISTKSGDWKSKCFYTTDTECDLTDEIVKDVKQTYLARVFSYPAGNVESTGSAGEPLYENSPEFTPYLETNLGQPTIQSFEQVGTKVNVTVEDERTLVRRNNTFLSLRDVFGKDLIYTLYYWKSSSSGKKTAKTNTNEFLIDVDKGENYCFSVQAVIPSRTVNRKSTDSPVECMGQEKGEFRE
Method: In this assay 100 nM recombinant soluble tissue factor and 2 nM recombinant human factor VIIa are added to a 96-well assay plate containing 0.4 mM of the substrate, N-methylsulfonyl-D-phe-gly-arg-p-nitroaniline and either inhibitor or buffer (5 mM CaCl2, 50 mM Tris-HCl, pH 8.0, 100 mM NaCl, 0.1% BSA). […] Percent inhibition of TF-VIIa activity is calculated from OD405 nm value from the experimental and control sample.
(§1) Recombinant human VIIa was purchased from American Diagnostica, Greenwich CT and chromogenic substrate N-methylsulfonyl-D-phe-gly-arg-p-nitroaniline was prepared by American Peptide Company, Inc., Sunnyvale, Calif. Factor Xa was obtained from Enzyme Research Laboratories, South Bend Ind., thrombin from Calbiochem, La Jolla, Calif., and trypsin and L-BAPNA from Sigma, St. Louis Mo.

[2] = target: T2, Human thrombin (Homo sapiens, UniProt P00734); assay: Thrombin assay (chromogenic substrate); settings: reported only as less than or greater than 30 uM; read-out: Thrombin (II) IC50
T2 construct: converts prothrombin (II) to thrombin (IIa); purchased Calbiochem, La Jolla, Calif
Method: Percent inhibition of thrombin activity is calculated from OD405 nm value from the experimental and control sample.
as §1

[3] = target: T3, Human factor Xa (Homo sapiens, UniProt P00742); assay: Xa assay (chromogenic substrate S-2765); settings: reported only as less than or greater than 30 uM; read-out: Factor Xa (II) IC50
T3 construct: purchased Enzyme Research Laboratories, South Bend Ind
T3 sequence (P00742 235-488 limits assumed): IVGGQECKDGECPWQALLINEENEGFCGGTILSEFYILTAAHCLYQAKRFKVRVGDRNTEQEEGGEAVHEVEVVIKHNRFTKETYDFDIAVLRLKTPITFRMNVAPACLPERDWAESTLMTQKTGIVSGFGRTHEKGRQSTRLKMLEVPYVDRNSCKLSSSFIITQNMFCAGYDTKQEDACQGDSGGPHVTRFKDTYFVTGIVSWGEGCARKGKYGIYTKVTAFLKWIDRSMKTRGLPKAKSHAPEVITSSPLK
T3 sequence (P00742 41-179 limits assumed): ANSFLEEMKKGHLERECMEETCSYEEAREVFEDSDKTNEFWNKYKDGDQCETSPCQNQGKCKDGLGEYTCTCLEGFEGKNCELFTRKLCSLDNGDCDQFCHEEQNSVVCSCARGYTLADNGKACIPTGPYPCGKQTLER
Method: Human factor Xa (0.3 nM) and 0.15 mM -a-Benzyloxycarbonyl-D-arginyl-L-glycyl-L-arginine-p-nitroaniline-dihydrochloride (S-2765) are added to a 96-well assay plate containing either inhibitor or buffer (50 mM Tris-HCl, pH 8.0, 100 mM NaCl, 0.1% BSA). The reaction, in a final volume of 100 ul is measured immediately at 405 nm to determine background absorbance. The plate is incubated at room temperature for 60 min, at which time the rate of hydrolysis of the substrate is measured by monitoring the reaction at 405 nm for the release of p-nitroaniline. Percent inhibition of Xa activity is calculated from OD405 nm value from the experimental and control sample.
Recombinant soluble TF, consisting of amino acids 1-219 of the mature protein sequence was expressed in E. coli and purified using a Mono Q Sepharose FPLC. Recombinant human VIIa was purchased from American Diagnostica, Greenwich CT and chromogenic substrate N-methylsulfonyl-D-phe-gly-arg-p-nitroaniline was prepared by American Peptide Company, Inc., Sunnyvale, Calif. Factor Xa was obtained from Enzyme Research Laboratories, South Bend Ind., thrombin from Calbiochem, La Jolla, Calif., and trypsin and L-BAPNA from Sigma, St. Louis Mo. The chromogenic substrates S-2765 and S-2238 were purchased from Chromogenix, Sweden.

| pIC50 [1] | pIC50 [2] | pIC50 [3] | SMILES |
| --- | --- | --- | --- |
| < 7.00 | < 4.52 | < 4.52 | COC(=O)c1cc(N)cc(-c2cnc(NC(C)C)c(=O)n2CC(=O)NCc2c(F)c(F)c(C(=N)N)c(F)c2F)c1 [Example 48] |
| > 7.00 |  | < 4.52 | CCOC(=O)c1cc(N)cc(-c2cnc(NC(C)C)c(=O)n2CC(=O)NCc2ccc(C(=N)N)cc2)c1 [Example 44] |
| < 7.00 | < 4.52 |  | CC[C@@H](C)NC(=O)c1cc(N)cc(-c2cnc(NC(C)C)c(=O)n2CC(=O)NCc2c(O)cc(C(=N)N)cc2OCC(=O)O)c1 [Example 244] |
| > 7.00 | > 4.52 | < 4.52 | CCCCCC(C)C(=O)Nc1cc(N)cc(-c2cnc(NC(C)C)c(=O)n2CC(=O)NCc2ccc(C(=N)N)cc2)c1 (stereo not drawn) [Example 138] |
| > 7.00 |  | < 4.52 | CC(C)Nc1ncc(-c2cc(N)cc(C(=O)NCCN3CCCC3)c2)n(CC(=O)NCc2ccc(C(=N)N)cc2)c1=O [Example 41] |
| > 7.00 | > 4.52 | < 4.52 | CC[C@@H](C)NC(=O)c1cc(N)cc(-c2cnc(NC3CC3)c(=O)n2CC(=O)NCc2ccc(C(=N)N)cc2)c1 [Example 258] |
| > 7.00 | > 4.52 |  | CC[C@@H](C)NC(=O)c1cc(N)cc(-c2cnc(N[C@@H](C)CO)c(=O)n2CC(=O)NCc2ccc(C(=N)N)cc2)c1 [Example 248] |
| > 7.00 | > 4.52 | < 4.52 | CC(C)Nc1ncc(-c2cc(N)cc(F)c2)n(CC(=O)NCc2ccc(C(=N)N)cc2)c1=O [Example 52] |
| > 7.00 | > 4.52 | < 4.52 | CC(C)CNC(=O)c1cc(N)cc(-c2cnc(NC(C)C)c(=O)n2CC(=O)NCc2ccc(C(=N)N)cc2)c1 [Example 5] |
| < 7.00 | < 4.52 | < 4.52 | CC[C@@H](C)NC(=O)c1cc(N)cc(-c2cnc(NC(C)C)c(=O)n2CC(=O)NCc2c(OC)cc(C(=N)N)cc2OC)c1 [Example 197] |
| > 7.00 |  | < 4.52 | CONC(=O)c1cc(N)cc(-c2cnc(NC(C)C)c(=O)n2CC(=O)NCc2ccc(C(=N)N)cc2)c1 [Example 42] |
| > 7.00 |  | < 4.52 | CNC(=O)c1cc(N)cc(-c2cnc(NC(C)C)c(=O)n2CC(=O)NCc2ccc(C(=N)N)cc2)c1 [Example 38] |
| > 7.00 |  | < 4.52 | CC(C)Nc1ncc(-c2cc(N)cc(C(N)=O)c2)n(CC(=O)NCc2ccc(C(=N)N)cc2)c1=O [Example 47] |

The next lines start with the compound.

| SMILES | pIC50 [1] | pIC50 [2] | pIC50 [3] |
| --- | --- | --- | --- |
| CC[C@H](C)NC(=O)c1cc(N)cc(-c2cnc(NC)c(=O)n2CC(=O)NCc2ccc(C(=N)N)cc2)c1 [Example 257] | > 7.00 | < 4.52 | < 4.52 |
| CC(C)Nc1ncc(-c2cc(N)cc(C(=O)NCC(=O)O)c2)n(CC(=O)NCc2ccc(C(=N)N)cc2)c1=O [Example 32] | < 7.00 | < 4.52 | < 4.52 |
| CC(C)Nc1ccc(-c2cc(N)cc(N)c2)n(CC(=O)NCc2ccc(C(=N)N)cc2)c1=O [Example 163] | < 7.00 |  |  |
| CC[C@H](C)NC(=O)c1cc(N)cc(-c2cnc(NC(C)C)c(=O)n2CC(=O)NCc2ccc(C(=N)N)c(O)c2F)c1 [Example 173] | > 7.00 | < 4.52 | < 4.52 |
| COC(=O)Cc1cc(N)c(OC)c(-c2cnc(NC(C)C)c(=O)n2CC(=O)NCc2ccc(C(=N)N)cc2)c1 [Example 22, Methyl {3-amino-5-[1-[2-({4-[amino(imino)methyl]benzyl}amino)-2-oxoethyl]-5-(isopropylamino)-6-oxo-1,6-dihydropyrazin-2-yl]-4-methoxyphenyl}acetate] | < 7.00 | < 4.52 | < 4.52 |
| CC(C)Nc1ncc(-c2cc(N)cc(-c3ccccc3)c2)n(CC(=O)NCc2ccc(C(=N)N)cc2)c1=O [Example 69, 2-[6-(5-amino-1,1′-biphenyl-3-yl)-3-(isopropylamino)-2-oxopyrazin-1 (2H)-yl]-N-{4-[amino(imino)methyl]benzyl}acetamide] | > 7.00 | < 4.52 | < 4.52 |
| CC[C@@H](C)NC(=O)c1cc(N)cc(-c2cnc(NC(C)(C)C)c(=O)n2CC(=O)NCc2ccc(C(=N)N)cc2)c1 [Example 256, 3-amino-5-[1-[2-({4-[amino(imino)methyl]benzyl}amino)-2-oxoethyl]-5-(tert-butylamino)-6-oxo-1,6-dihydropyrazin-2-yl]-N-[(lR)-1-methylpropyl]benzamide bis(trifluoroacetate)] | > 7.00 | > 4.52 | < 4.52 |
| N=C(N)c1c(O)c(F)c(CNC(=O)Cn2c(-c3cc(N)cc(C(F)(F)F)c3)cnc(NC3CC3)c2=O)c(F)c1F [Example 243] | < 7.00 | < 4.52 |  |
| COCCNC(=O)c1cc(N)cc(-c2cnc(NC(C)C)c(=O)n2CC(=O)NCc2ccc(C(=N)N)cc2)c1 [Example 39] | > 7.00 |  | < 4.52 |
| CC(C)NC(=O)c1cc(N)cc(-c2cnc(NC(C)C)c(=O)n2CC(=O)NCc2ccc(C(=N)N)cc2)c1 [Example 60] | > 7.00 | > 4.52 | < 4.52 |
| CC(C)Nc1ncc(-c2cc(N)cc(NC(=O)C(C)(C)C)c2)n(CC(=O)NCc2ccc(C(=N)N)cc2)c1=O [Example 132] | > 7.00 | > 4.52 | < 4.52 |
| CC(C)Nc1ncc(-c2cc(N)cc(NC(=O)C3CCNCC3)c2)n(CC(=O)NCc2ccc(C(=N)N)cc2)c1=O [Example 150] | > 7.00 |  |  |
| CC(C)Nc1ncc(-c2cc(N)cc(C(=O)NC(C)(C)c3ccccc3)c2)n(CC(=O)NCc2ccc(C(=N)N)cc2)c1=O [Example 13] | > 7.00 | > 4.52 | < 4.52 |
| COc1cc(N)cc(-c2cnc(NC(C)C)c(=O)n2CC(=O)NCc2cc(O)c(C(=N)N)c(F)c2)c1 [Example 168] | < 7.00 | < 4.52 | < 4.52 |
| CC(C)Nc1ncc(-c2cc(N)cc(C(F)(F)F)c2)n(CC(=O)NCc2c(F)c(O)c(C(=N)N)c(F)c2F)c1=O [Example 126] | > 7.00 | > 4.52 | < 4.52 |
| CC(C)Nc1ncc(-c2cc(N)cc(C(=O)NC(C)(C)CCO)c2)n(CC(=O)NCc2ccc(C(=N)N)cc2)c1=O [Example 45] | > 7.00 |  | < 4.52 |
| CC(C)Nc1ncc(-c2cc(N)cc(C(=O)NCCO)c2)n(CC(=O)NCc2ccc(C(=N)N)cc2)c1=O [Example 30] | < 7.00 | < 4.52 | < 4.52 |
| COCCOCCOCCOCCOCCOCCOC(=O)c1cc(N)cc(-c2cnc(NC(C)C)c(=O)n2CC(=O)NCc2ccc(C(=N)N)cc2)c1 [Example 201] | > 7.00 | < 4.52 | < 4.52 |
| CC[C@H](C)NC(=O)c1cc(N)cc(-c2cnc(NC(C)C)c(=O)n2CC(=O)NCc2c(O)cc(C(=N)N)cc2OCc2ccccc2)c1 [Example 242] | > 7.00 | < 4.52 | < 4.52 |
| CC(C)Nc1ncc(-c2cc(N)cc(C(=O)NCCN3CCOCC3)c2)n(CC(=O)NCc2ccc(C(=N)N)cc2)c1=O [Example 40] | > 7.00 |  | < 4.52 |
| COCCNC(=O)c1cc(N)cc(-c2cnc(NC(C)C)c(=O)n2CC(=O)NCc2ccc(C(=N)N)cc2)c1 [Example 26, 3-amino-5-[1-[2-({4-[amino(imino)methyl]benzyl}amino)-2-oxoethyl]-5-(isopropylamino)-6-oxo-1,6-dihydropyrazin-2-yl]-N-(2-methoxyethyl)benzamide] | > 7.00 | < 4.52 | < 4.52 |
| CC(C)Nc1ncc(-c2cc(N)cc(NC(=O)C3CCCNC3)c2)n(CC(=O)NCc2ccc(C(=N)N)cc2)c1=O (stereo not drawn) [Example 151] | > 7.00 |  |  |
| CC(C)Nc1ncc(-c2cc(N)cc(C(=O)NC(C)(CO)CO)c2)n(CC(=O)NCc2ccc(C(=N)N)cc2)c1=O [Example 43] | > 7.00 |  | < 4.52 |
| CCCCN(CCCC)c1cc(N)cc(-c2cnc(NC(C)C)c(=O)n2CC(=O)NCc2ccc(C(=N)N)cc2)c1 [Example 149] | < 7.00 |  |  |
| CC[C@@H](C)NC(=O)c1cc(N)cc(-c2cnc(NC(C)C)c(=O)n2CC(=O)NCc2c(O)cc(C(=N)N)cc2OCc2cccnc2)c1 [Example 255] | < 7.00 | < 4.52 |  |
